The source of these data is ChEMBL document CHEMBL3045333, “Asymmetric aza-Michael additions of 4-nitrophthalimide to nitroalkenes and preliminary study of the products for herbicidal activities” (2013).

Assay type in all cases: functional
In assay [1] the test system is Echinochloa crus-galli. Put plainly: Herbicidal activity against Echinochloa crus-galli (barnyard grass) assessed as reduction of seedling height growth in light conditions at 100 ug/ml treated twice. Particulars: for inhibition of growth at 100 µg/mL: Echinochloa crus-galli, read-out: GI.
In assay [2] the test system is Echinochloa crus-galli. In words: Herbicidal activity against Echinochloa crus-galli (barnyard grass) assessed as reduction of seedling height growth in light conditions at 10 ug/ml treated twice. The following applies: read-out: GI.
The test system of assay [3] is Echinochloa crus-galli. Put plainly: Herbicidal activity against Echinochloa crus-galli (barnyard grass) assessed as reduction of radical growth in dark conditions at 100 ug/ml treated twice. Particulars: for inhibition of growth at 100 µg/mL: Echinochloa crus-galli, read-out: GI.
Assay [4] has as its system Echinochloa crus-galli. Put plainly: Herbicidal activity against Echinochloa crus-galli (barnyard grass) assessed as reduction of radical growth in dark conditions at 10 ug/ml treated twice. Particulars: for inhibition of growth at 10 µg/mL: Echinochloa crus-galli, read-out: GI.

Regarding `O=C1c2ccc([N+](=O)[O-])cc2C(=O)C1C(C[N+](=O)[O-])c1ccc(Cl)cc1Cl` (centres undefined), the inhibition of growth at 100 µg/mL in the assay on Echinochloa crus-galli [1] is 0%; in the assay on Echinochloa crus-galli [3], 10%. For the same compound, the figures for the inhibition of growth at 10 µg/mL in the assay on Echinochloa crus-galli [2] and in the assay with Echinochloa crus-galli [4] were 0% and 5%, respectively.

In the case of `O=C1c2ccc([N+](=O)[O-])cc2C(=O)C1C(C[N+](=O)[O-])c1cccc(Cl)c1` (centres undefined), the inhibition of growth at 100 µg/mL in the assay on Echinochloa crus-galli [1] and with Echinochloa crus-galli [3] was 0% throughout. The inhibition of growth at 10 µg/mL in the assay with Echinochloa crus-galli [2] and in the assay on Echinochloa crus-galli [4] was 0% each time.

Consider `O=C1c2ccc([N+](=O)[O-])cc2C(=O)C1C(C[N+](=O)[O-])c1ccccc1Cl` (centres undefined), for which the inhibition of growth at 100 µg/mL worked out at 93.2% in the assay with Echinochloa crus-galli [1] and 59.6% with Echinochloa crus-galli [3]. Also, the inhibition of growth at 10 µg/mL in the assay on Echinochloa crus-galli [2] and with Echinochloa crus-galli [4] was 0% each time.

`O=C1c2ccc([N+](=O)[O-])cc2C(=O)C1C(C[N+](=O)[O-])c1ccc(Cl)cc1` (racemic): the figures for the “growth inhibition (GI)” value in the assay with Echinochloa crus-galli [1] and in the assay on Echinochloa crus-galli [4] were 55.5% and 5%, respectively. Further, the inhibition of growth at 100 µg/mL with Echinochloa crus-galli [3] amounted to 10%.

As for `O=C1c2ccc([N+](=O)[O-])cc2C(=O)C1C(C[N+](=O)[O-])c1ccc(F)cc1` (racemic), the “growth inhibition (GI)” value with Echinochloa crus-galli [1] is reported as 64.1%. Besides, in the assay with Echinochloa crus-galli [3], the inhibition of growth at 100 µg/mL was determined as 0%. Also, in the assay with Echinochloa crus-galli [4], the inhibition of growth at 10 µg/mL turned out to be 0%.

Turning to `O=C1c2ccc([N+](=O)[O-])cc2C(=O)C1C(C[N+](=O)[O-])c1ccc(F)cc1` (stereo in doubt; 4bd), the “growth inhibition (GI)” value with Echinochloa crus-galli [1] is recorded as 22%. Besides, the inhibition of growth at 10 µg/mL in the assay on Echinochloa crus-galli [2] was 0%.

On to `O=C1c2ccc([N+](=O)[O-])cc2C(=O)C1C(C[N+](=O)[O-])c1ccc(Cl)cc1` (stereo in doubt; 4be), for which the “growth inhibition (GI)” value in the assay on Echinochloa crus-galli [1] stood at 9.7%; in the assay with Echinochloa crus-galli [3], 5%; in the assay with Echinochloa crus-galli [4], 0%. In the assay with Echinochloa crus-galli [2], the inhibition of growth at 10 µg/mL came out at 0%.
